According to ChEMBL document CHEMBL1201862, “PubChem BioAssay data set” (2004):
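Dose response: 5 concentrations. Exposure: 48 h. Format: 96-well plates. Endpoint: linear interpolation; highest concentration if not reached. GI50 is the concentration that inhibits growth by half.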 The source made the active and inactive calls. No stated cut-off is given here; in the data, active = GI50 up to about 1.1 µM and inactive = higher.

What was measured:
Assay in all cases: NCI tumour cell line growth inhibition, 48 h
A549 = tested on: A549
COLO 205 = tested on: COLO 205
EKVX = tested on: EKVX
HCT-116 = tested on: HCT-116
IGROV-1 = tested on: IGROV-1
LOX IMVI = tested on: LOX IMVI
NCI-H226 = tested on: NCI-H226
NCI-H522 = tested on: NCI-H522
OVCAR-3 = tested on: OVCAR-3
RXF 393 = tested on: RXF 393
SF-539 = tested on: SF-539
SK-MEL-28 = tested on: SK-MEL-28
SK-MEL-2 = tested on: SK-MEL-2
SK-MEL-5 = tested on: SK-MEL-5
SK-OV-3 = tested on: SK-OV-3
SNB-75 = tested on: SNB-75
SW-620 = tested on: SW-620
U-251 = tested on: U-251
UACC-257 = tested on: UACC-257
M14 = tested on: M14

Row | SMILES | GI50 (A549) | GI50 (COLO 205) | GI50 (EKVX) | GI50 (HCT-116) | GI50 (IGROV-1) | GI50 (LOX IMVI) | GI50 (NCI-H226) | GI50 (NCI-H522) | GI50 (OVCAR-3) | GI50 (RXF 393) | GI50 (SF-539) | GI50 (SK-MEL-28) | GI50 (SK-MEL-2) | GI50 (SK-MEL-5) | GI50 (SK-OV-3) | GI50 (SNB-75) | GI50 (SW-620) | GI50 (U-251) | GI50 (UACC-257) | GI50 (M14)
1 | Cc1[nH]c(=O)[nH]c(=O)c1/C=C/C(=O)NC(CO)C[S+]([O-])C[S+](C)[O-] (configuration not stated) | 24.4 µM (inactive) | 30 µM (inactive) | 16.4 µM (inactive) | 19.3 µM (inactive) | 12.6 µM (inactive) | 15.5 µM (inactive) | 17.5 µM (inactive) | 9.51 µM (inactive) | 7.87 µM (inactive) | 20.8 µM (inactive) | 13.9 µM (inactive) | 17.8 µM (inactive) | 13.5 µM (inactive) | 18 µM (inactive) | 20.5 µM (inactive) | 7.18 µM (inactive) | 38.6 µM (inactive) | 3.8 µM (inactive) | 21.8 µM (inactive) | 
2 | CCCO[C@@H]1[C@@H](OC(C)=O)[C@@H](OC(C)=O)C(C)(C)/C=C/[C@H](C)C(=O)[C@@]2(OC(C)=O)C[C@@](C)(OC(C)=O)[C@H](OC(C)=O)[C@@H]2[C@H]2OC(=O)CC[C@@]12OC(=O)c1ccccc1 |  | 6.97 µM (inactive) | > 25 µM (inactive) | 6.97 µM (inactive) | > 25 µM (inactive) | > 25 µM (inactive) | > 25 µM (inactive) | 0.774 µM (active) | > 25 µM (inactive) | > 25 µM (inactive) | > 25 µM (inactive) |  | > 25 µM (inactive) | 19.1 µM (inactive) | > 25 µM (inactive) | > 25 µM (inactive) | 23.6 µM (inactive) | > 25 µM (inactive) | > 25 µM (inactive) | > 25 µM (inactive)
3 | O=C1Nc2ccccc2Nc2ccncc21 | > 100 µM (inactive) | > 100 µM (inactive) | > 100 µM (inactive) | > 100 µM (inactive) | > 100 µM (inactive) | > 100 µM (inactive) | > 100 µM (inactive) | > 100 µM (inactive) | > 100 µM (inactive) | > 100 µM (inactive) | > 100 µM (inactive) | > 100 µM (inactive) | > 100 µM (inactive) | > 100 µM (inactive) | > 100 µM (inactive) | > 76 µM (inactive) | > 100 µM (inactive) | > 100 µM (inactive) | > 100 µM (inactive) | 
4 | C1#Cc2ccccc2OCCOc2ccccc2C#Cc2ccccc2OCCOc2ccccc21 | 25.2 µM (inactive) | 30.1 µM (inactive) | 26.5 µM (inactive) | 32.7 µM (inactive) | 15.6 µM (inactive) | 16 µM (inactive) | 19.1 µM (inactive) | 20.7 µM (inactive) | 14 µM (inactive) | 14.7 µM (inactive) |  | 70.8 µM (inactive) | 71 µM (inactive) | 18.2 µM (inactive) |  |  | 34 µM (inactive) | 12.5 µM (inactive) | > 100 µM (inactive) | 30.8 µM (inactive)
5 | COc1ccc2[nH]c(Cl)c(/C=C3/C(=O)Nc4cc(C)c(OC)cc43)c2c1 | 5.26 µM (inactive) | 2.02 µM (inactive) | 9.53 µM (inactive) | 4.59 µM (inactive) | 4.31 µM (inactive) | 5.3 µM (inactive) |  | 2.9 µM (inactive) | 2.66 µM (inactive) | 11.1 µM (inactive) | 0.723 µM (active) | 9.38 µM (inactive) | 2.4 µM (inactive) | 2.25 µM (inactive) | 2.52 µM (inactive) | 10.8 µM (inactive) | 4.21 µM (inactive) | 4.88 µM (inactive) | 11.4 µM (inactive) | 3.98 µM (inactive)
